SMILES strings stand for the structures.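 How tested: cells in 96-well plates exposed to compound for 48 hours at five concentrations. GI50: concentration for 50% inhibition of growth. TGI: concentration producing complete growth inhibition.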 Where a SMILES comes first, the peptide text is derived from it. Bridges are numbered along the chain shown (N, C = ends). Roman numbers before positions name the chains, in order. [ ]: non-standard residue; d: D form. The star is where a group is joined. Heptadecanoyl = CCCCCCCCCCCCCCCCC(=O)*; Phg = N[CH](C(=O)O)c1ccccc1

Holding throughout (test): NCI anticancer screen, dose series, 48 h
Assay [1] concerns UACC-62 melanoma.
Assay [2] deals with MDA-N.
Assay [3] has as its system CCRF-CEM leukemia.
For assay [4], the system named is KM12 colon.
Assay [5] deals with CAKI-1 renal.
Assay [6] relates to LOX IMVI melanoma.
In assay [7] the test system is SN12C renal.
For assay [8], the system named is NCI-H460 lung.
The test system of assay [9] is HOP-62 NSCLC.
Assay [10] deals with HCC-2998 colon.

`Nc1nc(Cl)nc2c1ncn2C1CCC(CO)O1` (stereo unspecified): the TGI in [1], in assay [2], in [3], in assay [4], in [5] and in assay [6] was above 100 µM in each case. For the same compound, the TGI in assay [7], in [8] and in [9] was above 100 µM in each case.
As to `CN(C)C(=S)SCc1ccccc1`, the TGI in [1], in [2], in [3], in assay [4], in [5] and in assay [6] was above 100 µM throughout. The TGI in assay [7], in assay [8] and in assay [9] was above 100 µM in each case.
In the case of `Cc1cccc(C(O)c2ccccn2)c1O` (stereo unspecified), the TGI in [1], in assay [2], in assay [3], in assay [4], in assay [5] and in assay [6] was above 100 µM each time. The TGI in assay [7], in assay [8], in assay [10] and in [9] was above 100 µM in each case.
For `N#CC(C#N)=Cc1ccc(-c2ccc(-c3nc4ccccc4s3)cc2)s1`, the GI50 was 15.1 µM in assay [1]; 21 µM in assay [3]; 19.9 µM in [4]; 20.9 µM in [5]; 8.5 µM in [6]; 26 µM in assay [8]. Besides, the GI50 was 27.9 µM in [10] and 13 µM in [9]. The TGI in assay [1] was 30.7 µM; in assay [3], 62.9 µM; in assay [4], 78.5 µM; in assay [5], 47.4 µM; in assay [6], 23.5 µM; in [8], above 100 µM. Besides, the TGI in assay [10] is 65.8 µM; in [9], 34.2 µM.
As to `CCCCCCCCCCCCCCCCC(=O)N1CCCC1C(=O)NCC(=O)NC(C(=O)N1CCCC1C(=O)NC(CO)C(=O)NC(Cc1ccc(O)cc1)C(=O)NC(CCCCNC(=O)C1CCCN1C(=O)C(CCCCN)NC(=O)C(CCCCN)NC(=O)C(CCCCN)NC(=O)C(CCCNC(=N)N)NC(=O)C(CCCCN)NC(=O)C(N)C(C)C)C(=O)NC(CC(C)C)C(=O)NC(CCCNC(=N)N)C(=O)N1CCCC1C(=O)NCC(N)=O)c1ccccc1` (stereo unspecified) (I: Heptadecanoyl-PG[Phg]PSYKLRPG-NH2 / II: H-VKRKKKP; amide I:7-II:C; configuration not given here), the GI50 in assay [3] was 12 µM; in assay [5], 22.9 µM; in assay [7], 12 µM; in assay [8], 23.2 µM; in assay [10], 4.36 µM; in [9], 32.3 µM. For the same compound, the TGI in [3] was 31.5 µM; in [5], 47.7 µM; in assay [7] it was 27.7 µM; in assay [8], above 100 µM; in assay [10] it was 29.9 µM; in assay [9] it was above 100 µM.

(Values after PubChem BioAssay (NCI).)
